What was measured:
Format in all cases: in vivo, Wistar male rats
[1] = system: epilepsy rats (PTZ induced); assay: Passive avoidance test in shuttle box (trial E); settings: after retention session of 24 hours, p<0.05 compared to group A0
Method: (§1) Wistar male rats (8 week-old) purchased from BioLASCO Taiwan Co., Ltd were used. The rats were housed in an animal room with constant temperature of 21-24° C., where was kept on a 12-hours light and 12-hours dark cycle. The rats were housed and kept on free diet and water.
(§2) 3 days before the trials, motor functions of the rats were tested by the rotarod test. On the 1st, 3rd, 5th, 7th, 9th, 11th and 13th days, pentylenetetrazol (PTZ, 35 mg/kg) was IP injected to the rats to induce epilepsy rats of groups A1-A5. On the 21st day, after administration of PTZ, seizure intensity of the rats was measured.
(§3) Referring to TABLE 1, on the 7th, 8th, 9th, 10th, 11th, 12th and 13th days, clavulanic acid and/or valproic acid was IP injected to the epilepsy rats of groups A2-A5. Saline (1 mL/kg/day) was IP injected to the normal rats of group A0, as well as the epilepsy rats of group A1.
On the 14th day, the motor function of the rats of groups A0-A5 was tested by rotarod test. […] The number of BrdU-positive cells in hippocampal dentate gyrus was calculated. […]
After the retention session for 24 hours, the rat R under the test was placed in the light chamber C1, and the guillotine door D was opened, as shown in FIG. 8b. The latency to entrance into the dark chamber C2 was recorded. […]

[2] = system: epilepsy rats (PTZ induced); assay: Seizure intensity by Racine score in PTZ-induced epilepsy rats (trial B); settings: for seizure intensity (Racine score): 9th, 11th and 13th days
Method: Wistar male rats (8 week-old) purchased from BioLASCO Taiwan Co., Ltd were used. The rats were housed in an animal room with constant temperature of 21-24° C., where was kept on a 12-hours light and 12-hours dark cycle. The rats were housed and kept on free diet and water. 3 days before the trials, motor functions of the rats were tested by the rotarod test. On the 1st, 3rd, 5th, 7th, 9th, 11th and 13th days, pentylenetetrazol (PTZ, 35 mg/kg) was IP injected to the rats to induce epilepsy rats of groups A1-A5. On the 21st day, after administration of PTZ, seizure intensity of the rats was measured. Referring to TABLE 1, on the 7th, 8th, 9th, 10th, 11th, 12th and 13th days, clavulanic acid and/or valproic acid was IP injected to the epilepsy rats of groups A2-A5. Saline (1 mL/kg/day) was IP injected to the normal rats of group A0, as well as the epilepsy rats of group A1. On the 1st, 3rd, 5th, 7th, 9th, 11th, 13th and 21st days, the seizure intensity of the rats of groups A0-A5 was measured by Racine score. The seizure intensity was scored according to Racine's scale as follows: 0=normal, nonepileptic activity, 1=mouth and facial movements, hyperactivity, grooming, sniffing, scratching, wet dog shakes, 2=head nodding, staring, tremor, 3=forelimb clonus, forelimb extension, 4=rearing, salivating, tonic clonic activity and 5=falling, status epilepticus.

[3] = system: epilepsy rats (PTZ induced); assay: Rotarod test of motor function (trial C); settings: 14th day, 25 rpm for 3 minutes
Method: Wistar male rats (8 week-old) purchased from BioLASCO Taiwan Co., Ltd were used. The rats were housed in an animal room with constant temperature of 21-24° C., where was kept on a 12-hours light and 12-hours dark cycle. The rats were housed and kept on free diet and water. 3 days before the trials, motor functions of the rats were tested by the rotarod test. On the 1st, 3rd, 5th, 7th, 9th, 11th and 13th days, pentylenetetrazol (PTZ, 35 mg/kg) was IP injected to the rats to induce epilepsy rats of groups A1-A5. On the 21st day, after administration of PTZ, seizure intensity of the rats was measured. Referring to TABLE 1, on the 7th, 8th, 9th, 10th, 11th, 12th and 13th days, clavulanic acid and/or valproic acid was IP injected to the epilepsy rats of groups A2-A5. Saline (1 mL/kg/day) was IP injected to the normal rats of group A0, as well as the epilepsy rats of group A1. On the 14th day, the motor function of the rats of groups A0-A5 was tested by rotarod test. On the 15th, 16th and 17th days, the cognitive impairment on object recognition ability of the rats of groups A0-A5 was tested by object recognition test. On the 18th, 19th and 20th days, the cognitive impairment on memory of the rats of groups A0-A5 was tested by passive avoidance test. Moreover, on the 22nd day, BrdU (5′-bromo-2′-deoxyuridine) was IP injected to the rats of groups A0-A5 to label the proliferating cells. On the 23rd day, the rats of groups A0-A5 were sacrificed and the coronal brain sections were collected. The sections with hippocampal dentate gyrus were used for BrdU staining. The number of BrdU-positive cells in hippocampal dentate gyrus was calculated. Next, motor function of the rats of groups A0-A5 was tested by rotarod test. Specifically, in the training session, the normal rat that had not yet been induced as epilepsy rat by PTZ was used as the rat R under the test. […] 3 trials were performed with a cutoff of 5 minutes. On the 14th day, the rats of groups A0-A5 were used as the rats R under the test. […]

[4] = system: epilepsy rats (PTZ induced); assay: Object recognition test (trial D); settings: 17th day
Method: as §1, §2, §3
On the 14th day, the motor function of the rats of groups A0-A5 was tested by rotarod test. On the 15th, 16th and 17th days, the cognitive impairment on object recognition ability of the rats of groups A0-A5 was tested by object recognition test. On the 18th, 19th and 20th days, the cognitive impairment on memory of the rats of groups A0-A5 was tested by passive avoidance test. […] The number of BrdU-positive cells in hippocampal dentate gyrus was calculated. […]
On the 17th day, during the test session, the rat R under the test was placed in the open box, shown as FIG. 6a, and the time spent exploring the object O1 (TO1) and the total time spent exploring the objects O1, O2 & O3 (TO1+O2+O3) were recorded, respectively. The percentage of the exploration time spent on the object O1 was calculated as (TO1/TO1+O2+O3)*100%. […] The time spent exploring the novel object O4 (TO4) and the total time spent exploring the objects O2 & O3 and the novel object O4 (TO2+O3+O4) were respectively recorded, and the percentage of the exploration time spent on the novel object O4 was calculated as […].

[5] = system: epilepsy rats (PTZ induced); assay: BrdU staining of hippocampal dentate gyrus (trial F); settings: 23rd day
Method: as §1, §2, §3
On the 14th day, the motor function of the rats of groups A0-A5 was tested by rotarod test. On the 15th, 16th and 17th days, the cognitive impairment on object recognition ability of the rats of groups A0-A5 was tested by object recognition test. On the 18th, 19th and 20th days, the cognitive impairment on memory of the rats of groups A0-A5 was tested by passive avoidance test. Moreover, on the 22nd day, BrdU (5′-bromo-2′-deoxyuridine) was IP injected to the rats of groups A0-A5 to label the proliferating cells. On the 23rd day, the rats of groups A0-A5 were sacrificed and the coronal brain sections were collected. The sections with hippocampal dentate gyrus were used for BrdU staining. The number of BrdU-positive cells in hippocampal dentate gyrus was calculated.
On the 22nd day, BrdU was IP injected to the rats to label the proliferating cells. On the 23rd day, the rats of groups A0-A5 were sacrificed and the coronal sections of the brain were collected. The sections with hippocampal dentate gyrus were used for BrdU staining.

[6] = group A4: valproic acid 50 mg/kg/day IP

Structure (SMILES) | latency to entrance into the dark chamber C2 ([1]; group A2: clavulanic acid 1 mg/kg/day IP) | seizure intensity (Racine score) ([2]; group A2: clavulanic acid 1 mg/kg/day IP days 7-13) | seizure intensity (Racine score) after drug holiday ([2]; group A3: clavulanic acid 10 mg/kg/day IP days 7-13, not treated days 14-20, 21st day, compared to group A1 (saline)) | seizure intensity (Racine score) ([2]; group A3: clavulanic acid 10 mg/kg/day IP days 7-13) | riding time on rotarod ([3]; group A2: clavulanic acid 1 mg/kg/day IP, no difference between group A0) | riding time on rotarod ([3]; group A3: clavulanic acid 10 mg/kg/day IP, p<0.05 compared to group A1) | percentage of time exploring novel object O4 versus object O1 ([4]; group A2: clavulanic acid 1 mg/kg/day IP, p<0.01) | percentage of time exploring novel object O4 versus object O1 ([4]; group A3: clavulanic acid 10 mg/kg/day IP, p<0.05) | number of BrdU-positive cells in hippocampal dentate gyrus ([5]; group A2: clavulanic acid 1 mg/kg/day IP, no difference compared to group A0) | number of BrdU-positive cells in hippocampal dentate gyrus ([5]; group A3: clavulanic acid 10 mg/kg/day IP, no difference compared to group A0) | latency to entrance into the dark chamber C2 [1, 6] | seizure intensity (Racine score) ([2]; group A4: valproic acid 50 mg/kg/day IP days 7-13) | riding time on rotarod ([3]; group A4: valproic acid 50 mg/kg/day IP, p<0.001 compared to group A0) | percentage of time exploring novel object O4 versus object O1 [4, 6] | number of BrdU-positive cells in hippocampal dentate gyrus ([5]; group A4: valproic acid 50 mg/kg/day IP, p<0.05 compared to A0)
O=C(O)[C@H]1/C(=C/CO)O[C@@H]2CC(=O)N21 [clavulanic acid] | also decreases | 3-4 | still significantly lower | decreases | significantly increase the riding time | significantly increase the riding time | can recognize the novel object O4 | can recognize the novel object O4 | can recover the number of BrdU-positive cells to normal | can recover the number of BrdU-positive cells to normal | – | – | – | – | –
CCCC(CCC)C(=O)O [valproic acid] | – | – | – | – | – | – | – | – | – | – | cannot improve the cognitive impairment on memory | did not decrease | cannot improve the motor coordination and balance problems | cannot improve the cognitive decline on recognition ability | cannot improve the defect on neurogenesis

From patent US20210154173A1, “PHARMACEUTICAL COMPOSITION INCLUDING CLAVULANIC ACID AND VALPROIC ACID, METHOD FOR TREATMENT OF EPILEPSY SEIZURE, AND METHOD FOR TREATMENT OF EPILEPSY-ASSOCIATED MOTOR SYMPTOM AND COGNITIVE IMPAIRMENT” (Arthur Wisdom Technology Consultants Ltd., priority 2019, published 2021)
